Series [1] has as its system human renal cells 293Q (ATCC CLR-1573). In words: MTT cytotoxicity on human renal cells 293Q. To be noted: for DT50 CitE50: human renal cells 293Q, 24 h. The method, then: For cytotoxicity studies human kidney cells (ATCC No. CRL-1573) were used. The cells were cultured with Minimum Essential Medium (MEM) (GIBCO BRL), supplemented with 10% fetal bovine serum (FBS) (GIBCO BRL), 2 mM 1-glutamine (GIBCO BRL), 1.5 gL Na2HCO3 (Sigma Chemical Co), 0.1 mM nonessential amino acids (Sigma Chemical Co), and 1 mM sodium pyruvate (In vitro, S.A.). The technique of bromide of 3(4,5-dimethylthiazol-2-yl)-2,5-diphenyl tetrazolium (MTT) (Sigma Chemical Co) was applied; a technique which is based on the conversion of dye to an insoluble precipitate called formazan. This test is used as an indicator of mitochondrial function in living cells that measures the metabolic capacity in cells and serves as an indicator of cytotoxicity. […] (Mosman […], Immunol Methods, 65: 55-63). The cytoxicity test consisted of planting 10,000 cells per well in 96-well plates (Corning Incorporated Costar) in MEM and incubate them (Nuaire us autoflow CO2 water-jacketed incubator) during 24 h at 37° C. and 5% CO2. […] After incubation, cells were treated and incubated anew for 24 h. After this time the medium was aspirated carefully and replaced with 200 μL of fresh medium, and 50 μL of MTT was added for a total volume of 250 μl. They were then incubated for 4 hours in the above conditions. After that time the medium with MTT was carefully removed and 200 μL of DMSO and 25 μL of Sorensen buffer (0.1 M glycine+0.1 M NaCl at pH 10.5) were added to each well. The plate was then mixed until the formazan crystals dissolved, and it was finally read in a plate reader (Microplate Limaning System Ultramark, Biorad) at a wavelength of 550 nm.
For the tests, we used human renal ephythelial cells (293Q) (ATCC Catalog No. CRL-1573). The cells were cultured with Minimum Essential Medium (MEM) (GIBCO BRL) supplemented with 10% fetal bovine serum (FBS) (GIBCO BRL), 2 mM L-glutamine (GIBCO BRL), 1.5 g/L Na2HCO3 (Sigma Chemical Co), 0.1 mM nonessential amino acids (Sigma Chemical Co), and 1 mM sodium pyruvate (In vitro, S.A.). For cytoxicity tests, we applied the technique of bromide 3(4,5-dimethylthiazol-2-yl)-2,5-diphenyl tetrazolium (MTT) (Sigma Chemical Co), which is based on the conversion of the dye to an insoluble precipitate called formazan. This test is used as an indicator of mitochondrial function in living cells which measures the metabolic capacity in cells and serves as an indicator of cytotoxicity. (Wang, H. Z., Chang, C. H., Lin, C. P., Tsai, M. C). Using MTT viability assay to test the cytotoxicity of antibiotics and steroid to cultured porcine corneal endothelial cells. J. Ocul. Pharmacol. Ther. 1996; 12: 35-43). For the essay 10,000 cells were seeded per well in 96-well plates (Corning Incorporated Costar) in the medium already indicated and incubated for 24 h at 37° C. and 5% CO2. […] After incubation, cells were treated and incubated again for 24 h. The medium was carefully aspirated and replaced with 200 μl fresh medium, adding 50 μl MTT solution for a total volume of 250 μl. They were then incubated for 4 hours in the above conditions. The medium was carefully removed with MTT and 200 μl DMSO and 25 μl Sorense buffer (0.1 M glycine+0.1 M NaCl at pH 10.5) was added to each well. Then the plate was mixed until the formazan crystals dissolved; it was finally read in a reader plate (Microplate Limaning System Ultramark, Biorad) at a wavelength of 550 nm.

The subject of series [2] is Candida albicans ATCC 10231. Kind of series: Antifungal activity in vitro by flow cytometry, Candida albicans ATCC 10231. In kind it is cell-based. Particulars: ATCC10231, 24 h at 37° C., read-out: CF50 Candida albicans ATCC 10231. The method, then: (§1) The antifungal activity of the polyene macrolide derivate of the present invention was determined by flow cytometry method earlier described (Pinto et al., J. Medical Microbiology, 2009; 58, 1454-1462; Pina-Vaz and Rodriguez, Methods Mol. Biol. 2010; 638:281-289). For the test two strains of Candida albicans (ATCC 10231 and 752) and Candida kruzei were used. A cellular suspension of 1×10^6 UFC/mL was used, which has sown in 96-well plates. […] As controls were used: untreated yeasts (control of living cells), yeasts exposed to UV radiation (arrest, inhibition of proliferation), and yeasts exposed at temperature of 100° C. (dead yeasts). Cells were collected by centrifugation at 10,000×g for 10 min, they were washed once in phosphate buffer. […] of propidium iodide 0.1 mg/mL were added to the cell suspension. It was incubated during 30 minutes at room temperature and protected from light. Finally, the samples were analyzed by flow cytometry (Becton-Dickinson Facsc Calibur, laser argon 480 nm). The intrinsic parameters and fluorescence in the FL2 channel (yellow/orange fluorescence) for FUN and channel FL3 (red fluorescence, filter 630 nm) for propidium iodide were acquired and registered on a logarithmic scale for a minimum of 7500 events per sample. For data analysis, the quadrants were adjusted in a plot of data lines of fluorescence intensity of samples. […] These quadrants were used to quantify the percentile of cells showing altered fluorescence compared to drug-free controls.
For orientation: Flow cytometry measures light scatter and fluorescence of single cells or particles in a stream.

Series [3] relates to Candida albicans ATCC 752. In words: Antifungal activity in vitro by flow cytometry, Candida albicans ATCC 752. In kind it is cell-based. Particulars: ATCC752, 24 h at 37° C., read-out: CF50 Candida albicans ATCC 752. The method, then:
as §1

Series [4] relates to human erythrocytes. Kind of series: Hemolytic assay on human erythrocytes. The series is classed as cell-based. Particulars: 1 hour. The method, then:
The hemotoxicity of the polyene macrolide derivative of the present invention was determined by measuring the toxicity to human erythrocytes (values HE50) using a method established by Cybulska, et al. (Cybulska, B., Borowski, E. and Gary-Bobo, M. Relationship between ionophoric and hemolytic activities of perimycin A and vacidin A, two polyene macrolide antifungal antibiotics. Biochem Pharmacol. 1989; 38(11): 1755-1762). For determining the haematoxicity 2 mL blood were obtained and placed in a tube with EDTA. The number of erythrocytes was counted in a Neubauer chamber, and 1×10^7 cells/mL were placed in test tubes. The erythrocytes were resuspended in 450 μL of KCl 150 mM+Tris 3 mM buffer. The erythrocytes were treated with concentrations of 0.01, 0.1, 1, 10 y 100 μM and incubated in a water bath for 1 hour. They were then centrifuged at 1500 rpm for 15 seconds; 150 μL were taken from the supernatant and placed in 96-well plates; the optical density of each group was measured using a plate reader at a wavelength of 550 nm. We included one tube with the drug solvent (DMSO 1%) as internal control. We also included one tube only with erythrocytes and 500 μl of buffer KCl 150 mM+Tris 3 mM, which we consider as a negative control group and a tube with 500 μl of red cells and 35 mM NaCl (positive control).

Series [5] deals with Saccharomyces cerevisae FY833(SC) cells. In words: Viability of Saccharomyces cerevisae FY833 (SC) cells at various concentrations. In kind it is cell-based. To be noted: FIG. 1, various concentrations. The method, then: All derivatives were tested for antibiotic activity in yeast cultures of S. cerevisiae.
Series [6] can be described thus: Unit channel studies in chicken egg lecithin bilayers with cholesterol. To be noted: for Opening probability, channel type I / Opening probability, channel type II / Opening probability, channel type III / Opening probability, channel type IV / Opening probability, channel type V / Opening probability, channel type VI: 200 μM compound, 30 mol % cholesterol, 27° C.; for activity of transmembranal channels in the cholesterol membrane: in words, compared to AmB. The method, then: The activity is determined by the presence of the different channels formed by polyenes in the lipid bilayer (Cotero, et al., supra; Venegas, et al., supra). […] These values were determined by the technique of unit channel delineated above.
Unit channel studies were performed according to procedures described earlier (Cotero, et al., supra, Venegas, et al., supra). Required liposomal suspensions were prepared using lecithin with cholesterol or ergosterol. These suspensions were placed in an ultrasonic bath for 15 minutes to produce unilamellar vesicles. Subsequently, the suspension was placed in a 100 μl eppendorf and a lipid bilayer was formed on the tip of a micro-electrode. The unit channels of amphotericin and of the invented compounds were incorporated to this bilayer. The unit channel current of the various compounds was recorded with an electrometer, and then these records were analyzed by determining the activity of the compounds and the characteristics of the channels formed.
The activity is determined by the presence of the various channels formed by polyenes in the lipid bilayer (Cotero, et al., supra, Venegas, et al., supra). […] This conductance is the effect of all the channels present and was determined by the unit channel technique earlier described.

Series [7] concerns Candida kruzei. In words: Antifungal activity in vitro by flow cytometry, Candida kruzei. In kind it is cell-based. Particulars: 24 h at 37° C., read-out: CF50 Candida kruzei. The method, then:
as §1

For series [8] the following is noted: Recarrier K. thesis; cited from earlier work.

Each structure is given as a SMILES string. Entries after “also recorded” stand apart in the source; their conditions may differ.

With `CC1OC(O[C@H]2/C=C/C=C/C=C/C=C/C=C/C=C/C=C/C(C)[C@@H](O)C(C)C(C)OC(=O)C[C@H](O)C[C@H](O)CC[C@@H](O)[C@H](O)C[C@H](O)C[C@]3(O)CC(O)[C@@H](C(=O)NCc4ccccc4)C(C2)O3)C(O)C(N)C1O` (stereo partly shown) [A-1, N-benzylamide of AmB], the “DT50 CitE50” value in series [1] worked out at 100 µM. In addition, the IC50 in series [2] was above 100 µM. The IC50 in series [3] is above 100 µM. The “HE50 (Hemolysis 50)” value in series [4] came out at 52 µM. In addition, the “inhibitory capacity / potency on SC cells compared to AmB” value in series [5] (listed as amide 1) is “the most similar; also recorded: the highest power of the derivatives”. In series [6], the “Opening probability, channel type I” value turned out to be 2%; the “Opening probability, channel type II” value is listed as 1%; the “Opening probability, channel type III” value is listed as below 1%; the “Opening probability, channel type IV” value is recorded as below 1%. Besides, in series [6], the “Opening probability, channel type V” value is recorded as below 1%; the “Opening probability, channel type VI” value is recorded as below 1%; the “activity of transmembranal channels in the cholesterol membrane” value was “low activity of transmembranal channels”. Moreover, in series [7], the IC50 is above 100 µM.
As to `CC1OC(O[C@H]2/C=C/C=C/C=C/C=C/C=C/C=C/C=C/C(C)[C@@H](O)C(C)C(C)OC(=O)C[C@H](O)C[C@H](O)CC[C@@H](O)[C@H](O)C[C@H](O)C[C@]3(O)CC(O)[C@@H](C(=O)N(C(C)C)C(C)C)C(C2)O3)C(O)C(N)C1O` (stereo partly shown) [A-3, N-diisopropylamide of AmB], in series [1] (FIG. 2, FIG. 8), the “collateral cytotoxicity on human renal cells 293Q compared to AmB” value is listed as “low cytoxicity”. Further, the “DT50 CitE50” value in series [1] came to 180 µM. The IC50 in series [2] is above 50 µM. Moreover, the IC50 in series [3] is above 100 µM. In series [4], the “HE50 (Hemolysis 50)” value came out at 53 µM. Further, the “inhibitory capacity / potency on SC cells compared to AmB” value in series [5] is on record as “low potency in fungal cells”. Further, in series [6], the “Opening probability, channel type I” value is given as below 1%; the “Opening probability, channel type II” value is “N.O”; the “Opening probability, channel type III” value is reported as “N.O”; the “Opening probability, channel type IV” value is “N.O”. Moreover, in series [6], the “Opening probability, channel type V” value is listed as “N.O”; the “Opening probability, channel type VI” value is listed as “N.O”; the “activity of transmembranal channels in the cholesterol membrane” value was “more reduced presence of channels in membranes with cholesterol”. Also, the IC50 in series [7] is above 100 µM.
As to `C[C@@H]1[C@H](O)[C@@H](C)/C=C/C=C/CC/C=C/C=C/C=C/C=C/C(O[C@H]2O[C@H](C)[C@@H](O)[C@H](N)[C@@H]2O)CC2O[C@](O)(CC(O)C(O)CCC(O)CC(O)CC(O)CC(=O)O[C@H]1C)CC(O)C2C(=O)O` (stereo partly shown) [nystatin], the “selectivity ergosterol versus cholesterol POPC membranes” value in series [8] is recorded as “much higher selectivity”.

(Values after patent publication US20140256663A1, “Amphotericin Analogous Compounds and Pharmaceutical Compositions Containing Them” (CENTRO DE INVESTIGACION Y DE ESTUDIOS AVANZADOS DEL …, priority 2010, published 2014).)
